Drawing on BindingDB's records for doi:10.1016/j.bmcl.2019.05.020 (Meiji Pharmaceutical University, 2019), this text covers IC50 for 9 compounds.

A word on the IC50: it is the midpoint of a concentration-inhibition curve.

In the test the target is Amyloid-beta precursor protein (Homo sapiens, UniProt P05067). The test can be described thus: Inhibition of human amyloid beta (1 to 40) assessed as reduction in aggregation measured after 24 hrs by ThT fluorescence assay.
Chain of Amyloid-beta precursor protein (P05067 whole entry): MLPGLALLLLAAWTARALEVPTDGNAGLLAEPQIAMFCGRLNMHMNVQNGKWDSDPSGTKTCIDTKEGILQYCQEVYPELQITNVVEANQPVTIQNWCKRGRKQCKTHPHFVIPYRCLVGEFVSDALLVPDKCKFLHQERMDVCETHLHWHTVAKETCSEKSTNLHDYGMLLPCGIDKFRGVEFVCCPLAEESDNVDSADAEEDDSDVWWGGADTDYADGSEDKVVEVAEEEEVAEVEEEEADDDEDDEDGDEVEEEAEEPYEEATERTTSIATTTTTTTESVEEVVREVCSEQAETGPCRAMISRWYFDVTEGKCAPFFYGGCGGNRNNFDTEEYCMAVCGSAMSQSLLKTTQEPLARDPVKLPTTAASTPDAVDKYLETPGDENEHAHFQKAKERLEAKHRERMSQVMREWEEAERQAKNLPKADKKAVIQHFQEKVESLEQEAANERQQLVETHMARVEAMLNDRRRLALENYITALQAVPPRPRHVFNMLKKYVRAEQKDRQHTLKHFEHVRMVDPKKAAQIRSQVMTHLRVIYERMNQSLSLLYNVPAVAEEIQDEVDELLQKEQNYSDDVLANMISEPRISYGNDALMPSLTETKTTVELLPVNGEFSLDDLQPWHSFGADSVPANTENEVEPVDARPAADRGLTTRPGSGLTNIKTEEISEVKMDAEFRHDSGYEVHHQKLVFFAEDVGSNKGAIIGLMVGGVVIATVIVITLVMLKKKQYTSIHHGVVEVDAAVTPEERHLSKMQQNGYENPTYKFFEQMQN
`COc1ccc(-c2cc(=O)c3c(O)cc(O)c(-c4cc(-c5cc(O)c6c(=O)cc(O)cc-6o5)ccc4O)c3o2)cc1` [4'''-methylamentoflavone]: the IC50 turned out to be 4.9 µM. Take `COc1ccc(-c2cc(O)c3c(=O)cc(O)cc-3o2)cc1-c1c(OC)cc(O)c2c(=O)cc(-c3ccc(O)cc3)oc12` [4',7''-di-O-methyl-amentoflavone]: the IC50 is over 50 µM. Regarding `COc1ccc(-c2cc(=O)c3c(O)cc(OC)c(-c4cc(-c5cc(O)c6c(=O)cc(OC)cc-6o5)ccc4OC)c3o2)cc1` [7,4',7'',4'''-O-methyl-amentoflavone], the IC50 was over 50 µM. For the compound `COc1cc2oc(-c3ccc(OC)c(-c4c(OC)cc(O)c5c(=O)cc(-c6ccc(O)cc6)oc45)c3)cc(O)c-2c(=O)c1` [7-O-methyl-isoginkgetin], the 50% inhibitory concentration (IC50) is over 50 µM.

With `COc1ccc(-c2cc(=O)c3c(O)cc(OC)c(-c4cc(-c5cc(O)c6c(=O)cc(OC)cc-6o5)ccc4O)c3o2)cc1` [heveaflavone], the IC50 was over 50 µM. In the case of `COc1ccc(-c2cc(=O)c3c(O)cc(OC)c(-c4cc(-c5cc(O)c6c(=O)cc(O)cc-6o5)ccc4OC)c3o2)cc1` [kayaflavone], the IC50 is over 50 µM. Then `COc1ccc(-c2cc(=O)c3c(O)cc(O)c(-c4cc(-c5cc(O)c6c(=O)cc(OC)cc-6o5)ccc4OC)c3o2)cc1` [sciadopitisin], with over 50 µM; and `COc1cc2oc(-c3ccc(O)c(-c4c(O)cc(O)c5c(=O)cc(-c6ccc(O)cc6)oc45)c3)cc(O)c-2c(=O)c1` [sequoiaflavone], with 4.9 µM; and `COc1cc(O)c2c(=O)cc(-c3ccc(O)cc3)oc2c1-c1cc(-c2cc(O)c3c(=O)cc(O)cc-3o2)ccc1O` [sotetsuflavone], with over 50 µM.
